Experimental data reported in ChEMBL document CHEMBL3885881, “DrugMatrix”.

Species: Rattus norvegicus
Assay: DrugMatrix - Regimen: Daily Repeat
Format: toxicity, organism-based, Sprague-Dawley
Design: regimen Daily Repeat, gender Male, age 6-8 weeks
Details: in vivo, po, route oral GAVAGE, vehicle 100 % WATER; for ABSOLUTE BASOPHIL / ABSOLUTE EOSINOPHIL / ABSOLUTE LYMPHOCYTE / ABSOLUTE MONOCYTE / ABSOLUTE SEGMENTED NEUTROPHIL / BASOPHIL / EOSINOPHIL / ERYTHROCYTE COUNT / HEMATOCRIT / HEMOGLOBIN / LEUKOCYTE COUNT / LYMPHOCYTE / MEAN CORPUSCULAR HEMOGLOBIN / MEAN CORPUSCULAR HEMOGLOBIN CONCENTRATION / MEAN CORPUSCULAR VOLUME / MONOCYTE / NEUTROPHIL / NUCLEATED RED BLOOD CELLS / PLATELET COUNT: tissue Blood; for ALANINE AMINOTRANSFERASE / ALBUMIN / ALKALINE PHOSPHATASE / ASPARTATE AMINOTRANSFERASE / BLOOD UREA NITROGEN / CARBON DIOXIDE / CHLORIDE / CHOLESTEROL / CREATINE PHOSPHOKINASE / CREATININE / GLUCOSE / LACTATE DEHYDROGENASE / LIPASE / PHOSPHORUS / POTASSIUM / SODIUM / TOTAL BILIRUBIN / TOTAL PROTEIN / URIC ACID: tissue Plasma
[1] = 0 mg/kg, 72 h, dose level Control, time 3 day
[2] = 0 mg/kg, 120 h, dose level Control, time 5 day
[3] = 100 mg/kg, 72 h, dose level Low, time 3 day

## NC(=O)c1cccnc1 [NIACINAMIDE]
[1]
  ABSOLUTE BASOPHIL: 0 CELLS/uL
  ABSOLUTE EOSINOPHIL: 46 CELLS/uL
  ABSOLUTE LYMPHOCYTE: 10225.67 CELLS/uL
  ABSOLUTE MONOCYTE: 319.33 CELLS/uL
  ABSOLUTE SEGMENTED NEUTROPHIL: 1242.33 CELLS/uL
  BASOPHIL: 0%
  EOSINOPHIL: 0.33%
  ERYTHROCYTE COUNT: 5.17 x10E6/uL
  HEMATOCRIT: 33.43%
  HEMOGLOBIN: 12.55 G/DL
  LEUKOCYTE COUNT: 11.83 x10E3/uL
  LYMPHOCYTE: 86.5%
  MEAN CORPUSCULAR HEMOGLOBIN: 24.35 pg
  MEAN CORPUSCULAR HEMOGLOBIN CONCENTRATION: 37.57 G/DL
  MEAN CORPUSCULAR VOLUME: 64.8 fL
  MONOCYTE: 2.67%
  NEUTROPHIL: 10.5%
  NUCLEATED RED BLOOD CELLS: 0.17 /100WBC
  PLATELET COUNT: 1026.17 x10E3/uL
  ALANINE AMINOTRANSFERASE: 52.67 u/L
  ALBUMIN: 4.17 G/DL
  ALKALINE PHOSPHATASE: 331 u/L
  ASPARTATE AMINOTRANSFERASE: 92.33 u/L
  BLOOD UREA NITROGEN: 15.33 mg/dL
  CARBON DIOXIDE: 26.17 mmol/L
  CHLORIDE: 103.17 MEQ/L
  CHOLESTEROL: 73.67 mg/dL
  CREATINE PHOSPHOKINASE: 472.83 u/L
  CREATININE: 0.29 mg/dL
  GLUCOSE: 178.5 mg/dL
  LACTATE DEHYDROGENASE: 244.83 u/L
  LIPASE: 10.67 u/L
  PHOSPHORUS: 12.45 mg/dL
  POTASSIUM: 6.35 MEQ/L
  SODIUM: 144.27 MEQ/L
  TOTAL BILIRUBIN: 0.13 mg/dL
  TOTAL PROTEIN: 5.77 G/DL
  URIC ACID: 2.08 mg/dL
[2]
  ABSOLUTE BASOPHIL: 0 CELLS/uL
  ABSOLUTE EOSINOPHIL: 23.5 CELLS/uL
  ABSOLUTE LYMPHOCYTE: 12797.33 CELLS/uL
  ABSOLUTE MONOCYTE: 465.5 CELLS/uL
  ABSOLUTE SEGMENTED NEUTROPHIL: 1313.67 CELLS/uL
  BASOPHIL: 0%
  EOSINOPHIL: 0.17%
  ERYTHROCYTE COUNT: 5.76 x10E6/uL
  HEMATOCRIT: 36.72%
  HEMOGLOBIN: 13.72 G/DL
  LEUKOCYTE COUNT: 14.6 x10E3/uL
  LYMPHOCYTE: 87.5%
  MEAN CORPUSCULAR HEMOGLOBIN: 23.8 pg
  MEAN CORPUSCULAR HEMOGLOBIN CONCENTRATION: 37.35 G/DL
  MEAN CORPUSCULAR VOLUME: 63.72 fL
  MONOCYTE: 3.17%
  NEUTROPHIL: 9.17%
  NUCLEATED RED BLOOD CELLS: 0.33 /100WBC
  PLATELET COUNT: 1270.67 x10E3/uL
  ALANINE AMINOTRANSFERASE: 50.5 u/L
  ALBUMIN: 4.32 G/DL
  ALKALINE PHOSPHATASE: 339.67 u/L
  ASPARTATE AMINOTRANSFERASE: 88 u/L
  BLOOD UREA NITROGEN: 17 mg/dL
  CARBON DIOXIDE: 25 mmol/L
  CHLORIDE: 103.83 MEQ/L
  CHOLESTEROL: 71.33 mg/dL
  CREATINE PHOSPHOKINASE: 281.83 u/L
  CREATININE: 0.26 mg/dL
  GLUCOSE: 161.67 mg/dL
  LACTATE DEHYDROGENASE: 191.17 u/L
  LIPASE: 10.17 u/L
  PHOSPHORUS: 11.72 mg/dL
  POTASSIUM: 6.76 MEQ/L
  SODIUM: 145.17 MEQ/L
  TOTAL BILIRUBIN: 0.2 mg/dL
  TOTAL PROTEIN: 6.15 G/DL
  URIC ACID: 2 mg/dL
[3]
  ABSOLUTE BASOPHIL: 0 CELLS/uL
  ABSOLUTE EOSINOPHIL: 0 CELLS/uL
  ABSOLUTE LYMPHOCYTE: 11521.67 CELLS/uL
  ABSOLUTE MONOCYTE: 217.67 CELLS/uL
  ABSOLUTE SEGMENTED NEUTROPHIL: 794 CELLS/uL
  BASOPHIL: 0%
  EOSINOPHIL: 0%
  ERYTHROCYTE COUNT: 5.92 x10E6/uL
  HEMATOCRIT: 38.23%
  HEMOGLOBIN: 14.33 G/DL
  LEUKOCYTE COUNT: 12.53 x10E3/uL
  LYMPHOCYTE: 92.33%
  MEAN CORPUSCULAR HEMOGLOBIN: 24.2 pg
  MEAN CORPUSCULAR HEMOGLOBIN CONCENTRATION: 37.47 G/DL
  MEAN CORPUSCULAR VOLUME: 64.53 fL
  MONOCYTE: 1.67%
  NEUTROPHIL: 6%
  NUCLEATED RED BLOOD CELLS: 0.33 /100WBC
  PLATELET COUNT: 1202 x10E3/uL
  ALANINE AMINOTRANSFERASE: 47.67 u/L
  ALBUMIN: 4.43 G/DL
  ALKALINE PHOSPHATASE: 308.33 u/L
  ASPARTATE AMINOTRANSFERASE: 89 u/L
  BLOOD UREA NITROGEN: 17.67 mg/dL
  CARBON DIOXIDE: 25.67 mmol/L
  CHLORIDE: 103.67 MEQ/L
  CHOLESTEROL: 87.33 mg/dL
  CREATINE PHOSPHOKINASE: 322 u/L
  CREATININE: 0.26 mg/dL
  GLUCOSE: 158 mg/dL
  LACTATE DEHYDROGENASE: 344 u/L
  LIPASE: 11.67 u/L
  PHOSPHORUS: 13.47 mg/dL
  POTASSIUM: 6.73 MEQ/L
  SODIUM: 147.7 MEQ/L
  TOTAL BILIRUBIN: 0.2 mg/dL
  TOTAL PROTEIN: 6.2 G/DL
  URIC ACID: 2.6 mg/dL
